This note sets out measurements from ChEMBL document CHEMBL1149084, “Synthesis and evaluation of 2-pyridyl pyrimidines with in vitro antiplasmodial and antileishmanial activity” (Bioorg Med Chem Lett, 2009).

SMILES strings stand for the structures.

For one data set, the system named is Leishmania donovani. Description: Antileishmanial activity against Leishmania donovani. Type of data set: functional, organism-based.
The test system of a further data set is L6. Description: Cytotoxicity against rat L6 cells. Type of data set: ADME, cell-based.
Data set [1] relates to Plasmodium falciparum. The experiment in a line: Antiplasmodial activity against chloroquine-resistant Plasmodium falciparum K1. Type of data set: functional, organism-based.
In data set [2] the test system is Plasmodium falciparum. Description: Antimalarial activity against chloroquine-resistant Plasmodium falciparum Dd2 after 24 hrs by [3H]hypoxanthine uptake. Type of data set: functional, organism-based.
Data set [3] in a line: Inhibition of GST-tagged Plasmodium falciparum MetAP 1B by […].
The nature of data set [4]: Selectivity ratio of IC50 for rat L6 cells to IC50 for Leishmania donovani.

Broadly, the IC50 is the point on the concentration scale where inhibition reaches its midpoint. Read a high IC50 as weaker potency. In the case of `Cc1cc(NCCc2ccccc2)nc(-c2ccccn2)n1`, the IC50 with Leishmania donovani is 3 µM; in the data set on L6, 18.3 µM; in the data set on Plasmodium falciparum [1], 3.7 µM.
In the case of `Cc1nc(-c2ccccn2)nc(N2CCC(c3ccccc3)CC2)c1Cl`, the IC50 in the data set on Leishmania donovani turned out to be 1.1 µM; in the data set on L6, 183 µM; with Plasmodium falciparum [1] it was 8.9 µM.
For `Cc1nc(-c2ccccn2)nc(NCCNc2cc(C(F)(F)F)ccn2)c1Cl`, the IC50 with Leishmania donovani was found to be 0.28 µM; with L6, 5.2 µM; in the data set with Plasmodium falciparum [1], 2.74 µM.
On to `Cc1nc(-c2ccccn2)nc(N2CCN(CCO)CC2)c1Cl`, for which the IC50 in the data set on Leishmania donovani was determined as 156 µM; in the data set with L6, 270 µM; in the data set with Plasmodium falciparum [1], 7.5 µM.
`Cc1nc(-c2ccccn2)nc(NCCS(=O)(=O)c2ccccc2)c1Cl`: the 50% inhibitory concentration (IC50) was found to be 11.4 µM with Leishmania donovani, 72.8 µM in the data set with L6 and 10.4 µM with Plasmodium falciparum [1].
With `Cc1nc(-c2ccccn2)nc(NCC2CCOC2)c1Cl` (stereo unspecified), the figures for the IC50 with Leishmania donovani, in the data set on L6 and in the data set on Plasmodium falciparum [1] were 10.5 µM, 125 µM and 15.3 µM, respectively.
As to `Cc1nc(-c2ccccn2)nc(NCc2ccc(S(C)(=O)=O)cc2)c1Cl`, the IC50 in the data set with Leishmania donovani was determined as 10.7 µM; in the data set with L6, 93.6 µM; in the data set on Plasmodium falciparum [1], 10.1 µM.
Turning to `Cc1nc(-c2ccccn2)nc(NCc2ccccc2)c1Cl`, the half-maximal inhibitory concentration (IC50) was 0.47 µM with Leishmania donovani, 70.1 µM in the data set with L6 and 3.2 µM in the data set on Plasmodium falciparum [1].
Take `Cc1nc(-c2ccccn2)nc(NCCc2ccc(S(C)(=O)=O)cc2)c1Cl`: the IC50 in the data set on Leishmania donovani turned out to be 7.4 µM; in the data set with L6, 104 µM; in the data set with Plasmodium falciparum [1] it was 8.2 µM.
Regarding `Cc1nc(-c2ccccn2)nc(NCCc2cccc(Cl)c2)c1Cl`, the IC50 came to 0.44 µM with Leishmania donovani, 32.6 µM with L6 and 2.5 µM in the data set with Plasmodium falciparum [1].
For the molecule `Cc1nc(-c2ccccn2)nc(N2CCC(c3ccccc3)C2)c1Cl` (stereo unspecified), the IC50 amounted to 0.39 µM in the data set on Leishmania donovani, 133 µM in the data set on L6 and 4.7 µM in the data set with Plasmodium falciparum [1].
With `Cc1nc(-c2ccccn2)nc(NCCc2ccccc2)c1Cl`, the IC50 turned out to be 0.5 µM in the data set with Leishmania donovani; 25.5 µM in the data set on L6; 9.8 µM in the data set on Plasmodium falciparum [1]; 3.1 µM in the data set on Plasmodium falciparum [2]; 0.11 µM in data set [3].
Regarding `Cc1nc(-c2ccccn2)nc(NCCCc2ccccc2)c1Cl`, the results for the IC50 in the data set on Leishmania donovani, in the data set on L6 and in the data set with Plasmodium falciparum [1] were 0.48 µM, 73.5 µM and 1.9 µM, respectively.
For the molecule `Cc1nc(-c2ccccn2)nc(N(C)CCc2ccccc2)c1Cl`, the IC50 with Leishmania donovani is 0.32 µM; with L6, 62.5 µM; in the data set on Plasmodium falciparum [1], 3.5 µM.
For `COc1ccc(CCNc2nc(-c3ccccn3)nc(C)c2Cl)cc1` the same measures were 0.43 µM, 8.7 µM and 2.5 µM.
Turning to `Cc1nc(-c2ccccn2)nc(NCCc2ccncc2)c1Cl`, the IC50 in the data set with Leishmania donovani amounted to 14.1 µM; with L6, 110 µM; in the data set on Plasmodium falciparum [1] it was 9.5 µM.
`Cc1nc(-c2ccccn2)nc(NC2Cc3ccccc3C2)c1Cl`: the results for the IC50 in the data set on Leishmania donovani, in the data set with L6 and in the data set with Plasmodium falciparum [1] were 0.42 µM, 33.2 µM and 3.7 µM, respectively.
`CCN(CC)c1nc(-c2ccccn2)nc(C)c1Cl`: the IC50 with Leishmania donovani stood at 1.22 µM; in the data set with L6, 148 µM; in the data set with Plasmodium falciparum [1], 9 µM. The selectivity ratio in data set [4] was greater than 10.
Take `Cc1nc(-c2ccccn2)nc(NCC2CCCCC2)c1Cl`: the results for the IC50 in the data set on Leishmania donovani, in the data set with L6 and in the data set with Plasmodium falciparum [1] were 0.31 µM, 42.4 µM and 2.4 µM, respectively.
For `Cc1nc(-c2ccccn2)nc(NCCC2CCCCC2)c1Cl`, in that order: 0.26 µM, 49.5 µM and 2.3 µM.
Turning to `Cc1nc(-c2ccccn2)nc(N2CCCC2Cc2ccccc2)c1Cl` (stereo unspecified), the results for the IC50 in the data set on Leishmania donovani, in the data set on L6 and with Plasmodium falciparum [1] were 0.63 µM, 92.3 µM and 4.3 µM, respectively.
Take `Cc1nc(-c2ccccn2)nc(N2CCC(Cc3ccccc3)C2)c1Cl` (stereo unspecified): the half-maximal inhibitory concentration (IC50) came out at 0.38 µM in the data set on Leishmania donovani, 88 µM in the data set with L6 and 3.1 µM in the data set with Plasmodium falciparum [1].
For `Cc1nc(-c2ccccn2)nc(N2CCN(S(=O)(=O)c3ccccc3)CC2)c1Cl`, in that order: 54.4 µM, 210 µM and 11.6 µM.
For `Cc1nc(-c2ccccn2)nc(NCCc2ccc(Cl)cc2)c1Cl`, in that order: 0.45 µM, 40.4 µM and 2 µM.
Take `Cc1nc(-c2ccccn2)nc(N)c1Cl`: the IC50 in the data set on Leishmania donovani turned out to be 3.3 µM; in the data set on L6, 85.3 µM; in the data set with Plasmodium falciparum [1] it was 20.8 µM. In addition, the selectivity ratio in data set [4] was greater than 10.
Regarding `Cc1nc(-c2ccccn2)nc(N(C)C)c1Cl`, the half-maximal inhibitory concentration (IC50) with Leishmania donovani was 1.1 µM; with L6, 115 µM; in the data set with Plasmodium falciparum [1], 15.1 µM. For the same molecule, the selectivity ratio in data set [4] was greater than 10.
As for `FC(F)(F)c1cc(NCCc2ccccc2)nc(-c2ccccn2)n1`, the figures for the IC50 with Leishmania donovani, in the data set with L6 and with Plasmodium falciparum [1] were 2 µM, 74.2 µM and 8.2 µM, respectively.
On to `Cc1nc(-c2ccccn2)nc(N2CCCC2c2ccccc2)c1Cl` (stereo unspecified), for which the IC50 turned out to be 0.7 µM in the data set on Leishmania donovani, 76.5 µM with L6 and 4.1 µM with Plasmodium falciparum [1].
For `Cc1nc(-c2ccccn2)nc(NCCc2ccccc2Cl)c1Cl`, in that order: 1.2 µM, 91.6 µM and 6.3 µM.
On to `C[C@@H]1CC[C@H]2[C@@H](C)C(=O)O[C@@H]3O[C@@]4(C)CC[C@@H]1[C@]32OO4` [ARTEMISININ], for which the values for the IC50 with L6 and in the data set with Plasmodium falciparum [1] were greater than 170 µM and 0.005 µM, respectively.
For `CCN(CC)CCCC(C)Nc1ccnc2cc(Cl)ccc12` (stereo unspecified) [CHLOROQUINE], in the data set on L6, 70.1 µM corresponded to half-maximal inhibition (IC50).
In turn, `CCCCCCCCCCCCCCCCOP(=O)([O-])OCC[N+](C)(C)C` [MILTEFOSINE] had an IC50 in the data set with Leishmania donovani of 0.7 µM.
